Where two headings read alike, the source gives them in different places.
Legend:
xylS2/Pm = test: β-galactosidase induction, simple circuit xylS2/Pm::lacZ in chromosome (E. coli CC118FH26); format: cell-based; conditions: E. coli CC118FH26, 5 hours at 30° C.
Source text: (§1) This example illustrates how the effector molecules NahR and XylS2 can synergistically amplify gene expression when integrated properly into a cascade genetic circuit.

nahR/Psal = format: cell-based, E. coli; conditions: for Induction ratio of β-galactosidase activity: nahR/Psal, E. coli CC118RSL9, 5 hours at 30° C.
Source text: as §1

nahR/Psal::xylS2/Pm [1] = conditions: CC4S2PMT97, salicylate 2 mM, 30° C., 5 hours
Procedure: The pool of bacteria growing on streptomycin 25 mg/l and rifampicin 50 mg/l was used as recipient in a mating with donor strain E. coli S17-1(λpir) (pCNB4-S2). To select transconjugants, the mating product was plated onto LB plates with rifampicin, streptomycin and kanamycin (25 mg/l). […] Cultures from colonies of the transconjugant were grown overnight in LB medium (yeast extract 5 g/l, tryptone 10 g/l, 5 g/l NaCl) at 37° C. by shaking. Cultures were diluted 1:100 in fresh media without antibiotic selection and incubated for 2 hours at 37° C.

[2] = test system: nahR4/Psal::xylS/Pm::trp'::'lacZ
Pm::lacZ (pTSPm-lacZ) = conditions: CC118λpir pTSPm-lacZ, salicylate 2 mM, 30° C., 5 hours
[3] = test system: nahR/Psal::xylS2/Pm::trp'::'lacZ; conditions: Salicylate 2 mM, 30° C., 5 hours, depending on the transconjugant
[4] = test system: xylS2/Pm::nahR and Psal::trp'::'lacZ; conditions: E. coli 2NRSL7, salicylate 2 mM
[5] = test system: xylS2/Pm::lacZ (pCNB2-lacZ); conditions: CC118λpir pCNB2-lacZ, salicylate 2 mM, 5 hours
[6] = test system: nahR/Psal::lacZ (pCNB4-lacZ); conditions: CC118λpir pCNB4-lacZ, salicylate 2 mM, 5 hours
nahR/Psal::xylS2/Pm [7] = format: cell-based, E. coli
Source text: as §1

SMILES	Induction ratio of β-galactosidase activity (xylS2/Pm)	Induction ratio of β-galactosidase activity (nahR/Psal)	other results
COc1ccccc1C(=O)O [2-Metoxi-benzoate]	10	33	
O=C(O)c1ccccc1O [Salicylate]	13	24	β-gal activity (nahR/Psal::xylS2/Pm [1]): 39143 Miller Units; XylS accumulation (western blot) ([2]; P. putida cascade cultures induced with salicylate): Increased accumulation of XylS; β-galactosidase produced in the presence of salicylate relative to benzoate ([2]; P. putida cascade transconjugants, 2 mM): about 4 fold; β-gal activity (Pm::lacZ (pTSPm-lacZ)): 1358 Miller Units; gene expression capacity [3]: 150 to 400 times; β-galactosidase production when induced [3]: 25,000-50,000 MU; capacity of the reverse-coupled system (induction) [4]: 24 fold; β-gal activity ([5]; 30° C.): 67002 Miller Units; % β-gal/total proteins ([5]; SDS-PAGE densitometry): 13%; β-gal activity ([6]; 30° C.): 17952 Miller Units; % β-gal/total proteins ([6]; SDS-PAGE densitometry): 3.9%; β-galactosidase production, share of total protein (nahR/Psal; the simple system, SDS-PAGE and densitometry): less than 0.6%; induction ratio as part of maximal activity (nahR/Psal::xylS2/Pm [7]; 0.5 mM of salicylate): 90%; β-gal activity (nahR/Psal::xylS2/Pm [7]; CC4S2PMT32, salicylate 2 mM, 30° C., 5 hours): 30383 Miller Units; time at which accumulation of β-galactosidase reached maximum value (nahR/Psal::xylS2/Pm [7]; Salicylate 2 mM added at OD600=0.2): 5 h
Cc1ccc(O)c(C(=O)O)c1 [5-Methyl-salicylate]	19	30	
Cc1cccc(C(=O)O)c1O [3-Methyl-salicylate]	46	17	
COc1ccc(O)c(C(=O)O)c1 [5-Metoxi-salicylate]	46	3	
Cc1ccc(C(=O)O)c(O)c1 [4-Methyl-salicylate]	7	21	
Nc1ccccc1C(=O)O [Antranilate]	11	22	
O=C(O)c1ccc(Cl)cc1O [4-Chloro-salicylate]	1	33	
Cc1cccc(C(=O)O)c1 [3-Methyl-benzoate]	63	11	
O=C(O)c1cc(Cl)cc(Cl)c1O [3,5-Dichloro-salicylate]	1	18	
CC(=O)Oc1ccccc1C(=O)O [2-Acetyl salicylate]	10	40	
O=C(O)c1cc(Cl)ccc1O [5-Chloro-salicylate]	3	32	
